From PubChem BioAssay AID1259407 (Chemical Carcinogenesis Research Information System (CCRIS), 2018)
Active and inactive are the calls of the source. The rule behind the calls is not given here.

Test system: CCRIS mutagenicity, Ames/micronucleus/aberration tests
Assay: CCRIS mutagenicity studies
[1] = Test System: AMES SALMONELLA TYPHIMURIUM, Strain/Indicator: TA100, Metabolic Activation: RAT, LIVER, S-9, AROCLOR 1254, Method: STANDARD PLATE
[2] = Test System: AMES SALMONELLA TYPHIMURIUM, Strain/Indicator: TA1535, Metabolic Activation: NONE, Method: STANDARD PLATE
[3] = Test System: AMES SALMONELLA TYPHIMURIUM, Strain/Indicator: TA1535, Metabolic Activation: RAT, LIVER, S-9, AROCLOR 1254, Method: STANDARD PLATE

SMILES: CN(CCCC(=O)c1cccnc1)N=O
- mutagenic call (Test System: AMES SALMONELLA TYPHIMURIUM, Strain/Indicator: TA100, Metabolic Activation: NONE, Method: PREINCUBATION): inactive; negative
- mutagenic call (Test System: AMES SALMONELLA TYPHIMURIUM, Strain/Indicator: TA100, Metabolic Activation: RABBIT, LIVER, S-9, Method: PREINCUBATION): active; positive
- mutagenic call (Test System: AMES SALMONELLA TYPHIMURIUM, Strain/Indicator: TA100, Metabolic Activation: RABBIT, LUNG, CLARA CELLS, Method: PREINCUBATION): inactive; negative
- mutagenic call (Test System: AMES SALMONELLA TYPHIMURIUM, Strain/Indicator: TA100, Metabolic Activation: RABBIT, LUNG, MACROPHAGES, Method: PREINCUBATION): inactive; negative
- mutagenic call (Test System: AMES SALMONELLA TYPHIMURIUM, Strain/Indicator: TA100, Metabolic Activation: RABBIT, LUNG, TYPE II CELLS, Method: PREINCUBATION): inactive; negative
- mutagenic call (Test System: AMES SALMONELLA TYPHIMURIUM, Strain/Indicator: TA100, Metabolic Activation: RAT LIVER S-9, AROCLOR 1254, Method: PREINCUBATION): inactive; negative
- mutagenic call [1]: active; positive
- mutagenic call (Test System: AMES SALMONELLA TYPHIMURIUM, Strain/Indicator: TA1530, Metabolic Activation: RABBIT, LIVER, S-9, Method: PREINCUBATION): active; positive
- mutagenic call (Test System: AMES SALMONELLA TYPHIMURIUM, Strain/Indicator: TA1530, Metabolic Activation: RABBIT, LUNG, CLARA CELLS, Method: PREINCUBATION): inactive; negative
- mutagenic call (Test System: AMES SALMONELLA TYPHIMURIUM, Strain/Indicator: TA1530, Metabolic Activation: RABBIT, LUNG, MACROPHAGES, Method: PREINCUBATION): inactive; negative
- mutagenic call (Test System: AMES SALMONELLA TYPHIMURIUM, Strain/Indicator: TA1530, Metabolic Activation: RABBIT, LUNG, TYPE II CELLS, Method: PREINCUBATION): inactive; negative
- mutagenic call (Test System: AMES SALMONELLA TYPHIMURIUM, Strain/Indicator: TA1535, Metabolic Activation: HAMSTER, LIVER, MICROSOMES, 3-METHYLCHOLANTHRENE, Method: PREINCUBATION): active; positive
- mutagenic call (Test System: AMES SALMONELLA TYPHIMURIUM, Strain/Indicator: TA1535, Metabolic Activation: HAMSTER, LIVER, MICROSOMES, AROCLOR 1254, Method: PREINCUBATION): active; positive
- mutagenic call (Test System: AMES SALMONELLA TYPHIMURIUM, Strain/Indicator: TA1535, Metabolic Activation: HAMSTER, LIVER, MICROSOMES, DEXAMETHASONE, Method: PREINCUBATION): active; positive
- mutagenic call (Test System: AMES SALMONELLA TYPHIMURIUM, Strain/Indicator: TA1535, Metabolic Activation: HAMSTER, LIVER, MICROSOMES, ETHANOL, Method: PREINCUBATION): active; positive
- mutagenic call (Test System: AMES SALMONELLA TYPHIMURIUM, Strain/Indicator: TA1535, Metabolic Activation: HAMSTER, LIVER, MICROSOMES, ISOSAFROL, Method: PREINCUBATION): active; positive
- mutagenic call (Test System: AMES SALMONELLA TYPHIMURIUM, Strain/Indicator: TA1535, Metabolic Activation: HAMSTER, LIVER, MICROSOMES, PHENOBARBITAL, Method: PREINCUBATION): active; positive
- mutagenic call (Test System: AMES SALMONELLA TYPHIMURIUM, Strain/Indicator: TA1535, Metabolic Activation: HAMSTER, LIVER, S-9, 3-METHYLCHOLANTHRENE, Method: PREINCUBATION): active; positive
- mutagenic call (Test System: AMES SALMONELLA TYPHIMURIUM, Strain/Indicator: TA1535, Metabolic Activation: HAMSTER, LIVER, S-9, AROCLOR 1254, Method: PREINCUBATION): active; positive
- mutagenic call (Test System: AMES SALMONELLA TYPHIMURIUM, Strain/Indicator: TA1535, Metabolic Activation: HAMSTER, LIVER, S-9, DEXAMETHASONE, Method: PREINCUBATION): active; positive
- mutagenic call (Test System: AMES SALMONELLA TYPHIMURIUM, Strain/Indicator: TA1535, Metabolic Activation: HAMSTER, LIVER, S-9, ETHANOL, Method: PREINCUBATION): active; positive
- mutagenic call (Test System: AMES SALMONELLA TYPHIMURIUM, Strain/Indicator: TA1535, Metabolic Activation: HAMSTER, LIVER, S-9, ISOSAFROL, Method: PREINCUBATION): active; positive
- mutagenic call (Test System: AMES SALMONELLA TYPHIMURIUM, Strain/Indicator: TA1535, Metabolic Activation: HAMSTER, LIVER, S-9, PHENOBARBITAL, Method: PREINCUBATION): active; positive
- mutagenic call [2]: inactive; negative
- mutagenic call (Test System: AMES SALMONELLA TYPHIMURIUM, Strain/Indicator: TA1535, Metabolic Activation: RAT, LIVER, HEPATOCYTES, AROCLOR 1254, Method: STANDARD PLATE): active; positive
- mutagenic call (Test System: AMES SALMONELLA TYPHIMURIUM, Strain/Indicator: TA1535, Metabolic Activation: RAT, LIVER, HEPATOCYTES, Method: STANDARD PLATE): active; positive
- mutagenic call [3]: active; positive
- mutagenic call (Test System: AMES SALMONELLA TYPHIMURIUM, Strain/Indicator: TA1535, Metabolic Activation: RAT, LIVER, S-9, Method: STANDARD PLATE): inactive; negative
- mutagenic call (Test System: AMES SALMONELLA TYPHIMURIUM, Strain/Indicator: TA1535, Metabolic Activation: RAT, TRACHEAL EPITHELIAL CELLS, AROCLOR 1254, Method: STANDARD PLATE): inactive; negative
- mutagenic call (Test System: AMES SALMONELLA TYPHIMURIUM, Strain/Indicator: TA1535, Metabolic Activation: RAT, TRACHEAL EPITHELIAL CELLS, Method: STANDARD PLATE): inactive; negative
- mutagenic call (Test System: AMES SALMONELLA TYPHIMURIUM, Strain/Indicator: TA7004, Metabolic Activation: HAMSTER LIVER S-9, AROCLOR 1254, Method: PREINCUBATION): active; positive
- mutagenic call (Test System: AMES SALMONELLA TYPHIMURIUM, Strain/Indicator: TA7004, Metabolic Activation: NONE, Method: PREINCUBATION): inactive; negative
- mutagenic call (Test System: AMES SALMONELLA TYPHIMURIUM, Strain/Indicator: TA7004, Metabolic Activation: RAT LIVER S-9, AROCLOR 1254, Method: PREINCUBATION): active; positive
- mutagenic call (Test System: AMES SALMONELLA TYPHIMURIUM, Strain/Indicator: YG7108-2A6-OR, Metabolic Activation: NONE, Method: PREINCUBATION): active; positive
- mutagenic call (Test System: AMES SALMONELLA TYPHIMURIUM, Strain/Indicator: YG7108-2A6, Metabolic Activation: NONE, Method: PREINCUBATION): active; positive
- mutagenic call (Test System: AMES SALMONELLA TYPHIMURIUM, Strain/Indicator: YG7108-PCW, Metabolic Activation: NONE, Method: PREINCUBATION): inactive; negative
- mutagenic call (Test System: AMES SALMONELLA TYPHIMURIUM, Strain/Indicator: YG7108, Metabolic Activation: RAT LIVER S-9, PHENOBARBITAL AND 5,6-BENZOFLAVONE, Method: PREINCUBATION): active; positive
- mutagenic call (Test System: CHINESE HAMSTER V-79, Strain/Indicator: V-79 (HPRT)/6-THIOGUANINE, Metabolic Activation: RAT, HEPATOCYTES): active; positive
- mutagenic call (Test System: CHINESE HAMSTER V-79, Strain/Indicator: V-79 (HPRT)/6-THIOGUANINE, Metabolic Activation: RAT, HEPATOMA, H4IIE CELLS): inactive; negative
- mutagenic call (Test System: CHINESE HAMSTER V-79, Strain/Indicator: V-79 (HPRT)/6-THIOGUANINE, Metabolic Activation: RAT, LIVER, S-9, AROCLOR 1254): active; positive
- mutagenic call (Test System: E. COLI, Strain/Indicator: NR3835, Metabolic Activation: HOST-MEDIATED, Method: IN VIVO-IN VITRO): active; positive
- mutagenic call (Test System: UDS RABBIT LUNG CLARA CELLS, Strain/Indicator: THY INCORP, Metabolic Activation: NONE, Method: LIQUID SCINTILLATION COUNTING): active; positive
- mutagenic call (Test System: UDS RABBIT LUNG MACROPHAGES, Strain/Indicator: THY INCORP, Metabolic Activation: NONE, Method: LIQUID SCINTILLATION COUNTING): inactive; negative
- mutagenic call (Test System: UDS RABBIT LUNG TYPE II CELLS, Strain/Indicator: THY INCORP, Metabolic Activation: NONE, Method: LIQUID SCINTILLATION COUNTING): active; positive
- mutagenic call (Test System: UDS RODENT HEPATOCYTES, Strain/Indicator: THY INCORP (NON-S-PHASE), Method: AUTORADIOGRAPHY): active; positive

SMILES: C1CCCC2OC2CC1 (configuration not stated)
- mutagenic call (Test System: AMES SALMONELLA TYPHIMURIUM, Strain/Indicator: TA100, Metabolic Activation: NONE, Method: STANDARD PLATE): inactive; negative
- mutagenic call [1]: inactive; negative
- mutagenic call [2]: inactive; negative
- mutagenic call [3]: inactive; negative
- mutagenic call (Test System: UDS RAT HEPATOCYTES, Strain/Indicator: THY INCORP, Metabolic Activation: NONE): inactive; negative

SMILES: COc1cc(C[C@H]2COC(=O)[C@@H]2Cc2ccc(O)c(OC)c2)ccc1O
- mutagenic call (Test System: CHINESE HAMSTER V79 CELLS, Strain/Indicator: V79 CELLS (HPRT)/6-THIOGUANINE, Metabolic Activation: NONE, Method: SUSPENSION/PLATE): inactive; negative
- mutagenic call (Test System: CHINESE HAMSTER V-79, Strain/Indicator: V-79(HPRT)/THIOGUANINE, Metabolic Activation: NONE): inactive; negative
